Tests used:
Format in all cases: in vivo
rice (Oryza sativa) = assay: Test C flooded paddy test; settings: Flood, scale 0 to 100
Description: (§1) At the same time, plants selected from these crop and weed species and also winter barley (Hordeum vulgare), blackgrass (Alopecurus myosuroides), canarygrass (Phalaris minor), chickweed (Stellaria media), downy brome (Bromus tectorum), green foxtail (Setaria viridis), Italian ryegrass (Lolium multiflorum), wheat (Triticum aestivum), wild oat (Avena fatua) and windgrass (Apera spica-venti) were treated with postemergence applications of some of the test chemicals formulated in the same manner. Plants ranged in height from 2 to 18 cm (1- to 4-leaf stage) for postemergence treatments. Plant species in the flooded paddy test consisted of rice (Oryza sativa), umbrella sedge (Cyperus difformis), duck salad (Heteranthera limosa) and barnyardgrass (Echinochloa crus-galli) grown to the 2-leaf stage for testing. Treated plants and controls were maintained in a greenhouse for 12 to 14 days, after which time all species were compared to controls and visually evaluated. Plant response ratings, summarized in Table C, are based on a scale of 0 to 100 where 0 is no effect and 100 is complete control. A dash (-) response means no test result.

[1] = system: umbrella sedge (Cyperus difformis); assay: Test C flooded paddy test; settings: Flood, scale 0 to 100
Description: as §1

[2] = system: duck salad (Heteranthera limosa); assay: Test C flooded paddy test; settings: Flood, scale 0 to 100
Description: as §1

[3] = system: barnyardgrass (Echinochloa crus-galli); assay: Test C flooded paddy test; settings: Flood
Description: as §1

[4] = system: rice flatsedge (Cyperus iria); assay: Test E flooded paddy water application; settings: Flood, 21 days, scale 0 to 100 (0 no effect, 100 complete control)
Method in brief: (§2)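 Weeds sown in sterilized Tama silt loam (2.6% organic matter), greenhouse 29.5/26.7° C, 16-h photoperiod; at 2.0–2.5-leaf stage pots flooded to 3 cm and compound added to paddy water. Visual rating vs untreated controls after 21 days, 0 (no effect) to 100 (complete control).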

[5] = system: purple redstem (Ammannia coccinea); assay: Test E flooded paddy water application; settings: Flood, 21 days, scale 0 to 100 (0 no effect, 100 complete control)
Method in brief: as §2

[6] = 500 g ai/ha, scale 0 to 100 (0 no effect, 100 complete control)

| Structure (SMILES) | Plant response rating, Rice (rice (Oryza sativa); 62 g ai/ha) | Plant response rating, Rice (rice (Oryza sativa); 125 g ai/ha) | Plant response rating, Rice (rice (Oryza sativa); 250 g ai/ha) | Plant response rating, Rice (rice (Oryza sativa); 500 g ai/ha) | Plant response rating, Sedge, Umbrella ([1]; 62 g ai/ha) | Plant response rating, Sedge, Umbrella ([1]; 125 g ai/ha) | Plant response rating, Sedge, Umbrella ([1]; 250 g ai/ha) | Plant response rating, Sedge, Umbrella ([1]; 500 g ai/ha) | Plant response rating, Ducksalad ([2]; 62 g ai/ha) | Plant response rating, Ducksalad ([2]; 125 g ai/ha) | Plant response rating, Ducksalad ([2]; 250 g ai/ha) | Plant response rating, Ducksalad ([2]; 500 g ai/ha) | Plant response rating, Barnyardgrass ([3]; 62 g ai/ha, scale 0 to 100) | Plant response rating, Barnyardgrass ([3]; 125 g ai/ha, scale 0 to 100) | Plant response rating, Barnyardgrass ([3]; 250 g ai/ha, scale 0 to 100) | Plant response rating, Barnyardgrass [3, 6] | further results |
| --- | --- | --- | --- | --- | --- | --- | --- | --- | --- | --- | --- | --- | --- | --- | --- | --- | --- |
| CC(C)COC(=O)c1nc(C2CC2)nc(N)c1Br [Compound 17] | 0 | 0 | 45 | 75 | 0 | 0 | 20 | 25 | 0 | 0 | 80 | 80 | 0 | 0 | 0 | 50 |  |
| CNc1nc(C2CC2)nc(C(=O)OC)c1Br [Compound 5] | 0 | 0 | 0 | 0 | 0 | 0 | 0 | 0 | 0 | 0 | 0 | 0 | 0 | 0 | 0 | 20 |  |
| CCCCOC(=O)c1nc(C2CC2)nc(N)c1Br [Compound 16] | 0 | 0 | 0 | 65 |  | 0 | 50 | 55 | 65 | 65 | 75 | 85 | 0 | 0 | 15 | 50 |  |
| CCCOC(=O)c1nc(C2CC2)nc(N)c1Br [Compound 15] | 0 | 0 | 20 | 50 | 0 | 0 | 10 | 25 | 45 | 45 | 50 | 85 | 0 | 0 | 25 | 75 |  |
| CCOC(=O)c1nc(-c2ccc(Cl)cc2)nc(N)c1Br [Compound 37] | 0 | 0 | 0 | 0 | 85 | 85 | 90 | 95 | 95 | 95 | 100 | 100 | 0 | 0 | 0 | 0 | Flatsedge, Rice plant response rating ([4]; 32 g ai/ha): 0; Flatsedge, Rice plant response rating ([4]; 64 g ai/ha): 0; Flatsedge, Rice plant response rating ([4]; 125 g ai/ha): 75; Flatsedge, Rice plant response rating ([4]; 250 g ai/ha): 90; Plant response rating, Flatsedge, Rice ([4]; 16 g ai/ha): 0; Redstem plant response rating ([5]; 32 g ai/ha): 0; Redstem plant response rating ([5]; 64 g ai/ha): 30; Redstem plant response rating ([5]; 125 g ai/ha): 40; Redstem plant response rating ([5]; 250 g ai/ha): 80; Plant response rating, Redstem ([5]; 16 g ai/ha): 0 |
| COC(=O)c1nc(C2CC2)nc(N)c1Cl [Compound 9, methyl 6-amino-5-chloro-2-cyclopropyl-4-pyrimidinecarboxylate] | 0 | 30 | 55 | 75 | 0 | 15 | 15 | 85 | 45 | 70 | 80 | 90 | 0 | 15 | 55 | 85 |  |
| Nc1nc(C2CC2)nc(C=O)c1Br [Compound 26] | 0 | 0 | 20 | 25 | 0 | 0 | 20 | 20 | 40 | 40 | 40 | 40 | 0 | 0 | 0 | 0 |  |

— US8802597B2, “Herbicidal pyrimidines” (E I du Pont de Nemours and Company, priority 2003, dated 2014)
